Laboratory results reported in the supplement of paper PMC10307832.

Legend:
Test in all cases: relative viability (nuclei count vs DMSO), 5 days (fraction); higher = more cells survive
[1] = compound: Cc1ccc(F)c(NC(=O)Nc2ccc(-c3cccc4[nH]nc(N)c34)cc2)c1 [Linifanib] + Nc1nc2[nH]cc(CCc3ccc(C(=O)N[C@@H](CCC(=O)O)C(=O)O)cc3)c2c(=O)[nH]1 [Pemetrexed] (partner 0.2 µM)
Summary of the method: (§1)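 Lung cancer cell lines in 1536-well plates were dosed by pin tool the day after seeding, either with one drug alone or with a fixed anchor-drug dose plus five library-drug doses (not always all listed) in √10 steps. After 5 days, cells were fixed and their nuclei stained in one step (final 0.05% Triton X-100, 1% formaldehyde, 1 ug/ml Hoechst), then counted on 4× images. Relative viability is the nuclei count in treated wells divided by that in vehicle wells. Values are medians of duplicate plates.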

[2] = compound: Cc1ccc(F)c(NC(=O)Nc2ccc(-c3cccc4[nH]nc(N)c34)cc2)c1 [Linifanib] + CC1(C)CCC(c2ccc(Cl)cc2)=C(CN2CCN(c3ccc(C(=O)NS(=O)(=O)c4ccc(N[C@H](CCN5CCOCC5)CSc5ccccc5)c(S(=O)(=O)C(F)(F)F)c4)cc3)CC2)C1 [Navitoclax] (partner 0.5 µM)
Summary of the method: as §1

[3] = compound: Cc1ccc(F)c(NC(=O)Nc2ccc(-c3cccc4[nH]nc(N)c34)cc2)c1 [Linifanib] + Cc1cc(Nc2cc(N3CCN(C)CC3)nc(Sc3ccc(NC(=O)C4CC4)cc3)n2)n[nH]1 [Tozasertib] (partner 0.1 µM)
Summary of the method: as §1

[4] = compound: Cc1ccc(F)c(NC(=O)Nc2ccc(-c3cccc4[nH]nc(N)c34)cc2)c1 [Linifanib] + C[C@@H](Oc1cc(-c2cnn(C3CCNCC3)c2)cnc1N)c1c(Cl)ccc(F)c1Cl [Crizotinib] (partner 1 µM)
Summary of the method: as §1

[5] = compound: Cc1ccc(F)c(NC(=O)Nc2ccc(-c3cccc4[nH]nc(N)c34)cc2)c1 [Linifanib] + NC(=O)Nc1cc(-c2cccc(F)c2)sc1C(=O)N[C@H]1CCCNC1 [AZD7762] (partner 0.2 µM)
Summary of the method: as §1

[6] = compound: Cc1ccc(F)c(NC(=O)Nc2ccc(-c3cccc4[nH]nc(N)c34)cc2)c1 [Linifanib] + O=C(c1cc(Cc2n[nH]c(=O)c3ccccc23)ccc1F)N1CCN(C(=O)C2CC2)CC1 [Olaparib] (partner 8 µM)
Summary of the method: as §1

Cell Line | relative viability ([1]; first compound 0.03162 µM) | relative viability ([1]; first compound 0.1 µM) | relative viability ([1]; first compound 0.3162 µM) | relative viability ([2]; first compound 0.03162 µM) | relative viability ([2]; first compound 0.1 µM) | relative viability ([2]; first compound 0.3162 µM) | relative viability ([3]; first compound 0.03162 µM) | relative viability ([3]; first compound 0.1 µM) | relative viability ([3]; first compound 0.3162 µM) | relative viability ([4]; first compound 0.03162 µM) | relative viability ([4]; first compound 0.1 µM) | relative viability ([4]; first compound 0.3162 µM) | relative viability ([5]; first compound 0.03162 µM) | relative viability ([5]; first compound 0.1 µM) | relative viability ([5]; first compound 0.3162 µM) | relative viability ([6]; first compound 0.03162 µM) | relative viability ([6]; first compound 0.1 µM) | relative viability ([6]; first compound 0.3162 µM)
NCI-H3122 | 0.203 | 0.201 | 0.193 | 1.02 | 1.04 | 1.01 | 0.456 | 0.437 | 0.371 | 0.281 | 0.263 | 0.261 | 1.01 | 1.04 | 0.977 | 0.641 | 0.637 | 0.61
NCI-H2085 | 0.907 | 0.942 | 0.917 | 1.04 | 1.12 | 1.11 | 0.793 | 0.772 | 0.843 | 0.863 | 1.03 | 0.818 | 1.08 | 0.943 | 0.974 | 0.727 | 0.803 | 0.739
ChaGo-K-1 | 0.255 | 0.262 | 0.238 | 0.991 | 1.17 | 0.978 | 0.239 | 0.245 | 0.228 | 1.13 | 1.14 | 1.08 | 0.881 | 0.881 | 0.925 | 0.456 | 0.445 | 0.448
NCI-H460 | 0.0619 | 0.0626 | 0.0566 | 1.1 | 1.45 | 1 | 0.139 | 0.436 | 0.475 | 0.95 | 1.16 | 0.909 | 0.614 | 0.555 | 0.562 | 0.539 | 0.464 | 0.471
HCC-78 | 0.944 | 0.926 | 0.85 | 0.791 | 0.74 | 0.792 | 0.493 | 0.519 | 0.371 | 0.373 | 0.376 | 0.319 | 0.629 | 0.595 | 0.599 | 0.946 | 0.77 | 0.943
NCI-H322M | 0.598 | 0.589 | 0.65 | 1.25 | 1.14 | 1.17 | 0.5 | 0.515 | 0.407 | 0.954 | 0.982 | 0.828 | 0.594 | 0.581 | 0.552 | 0.832 | 0.809 | 0.796
A-427 | 0.96 | 0.992 | 0.945 | 1.07 | 0.986 | 0.998 | 0.227 | 0.204 | 0.197 | 0.964 | 0.983 | 0.83 | 0.735 | 0.823 | 0.779 | 0.722 | 0.766 | 0.732
BEN | 0.716 | 0.866 | 0.853 | 0.069 | 0.203 | 0.0675 | 0.446 | 0.441 | 0.484 | 0.897 | 0.924 | 0.791 | 0.693 | 0.78 | 0.764 | 1.11 | 0.942 | 0.985
NCI-H2087 | 0.661 | 0.726 | 0.529 | 0.959 | 1.08 | 0.95 | 0.295 | 0.254 | 0.267 | 0.602 | 1.03 | 0.655 | 1.33 | 1.45 | 1.32 | 0.618 | 0.764 | 0.598
PC-14 | 0.145 | 0.137 | 0.129 | 0.975 | 0.91 | 0.947 | 0.499 | 0.502 | 0.552 | 0.919 | 1 | 0.793 | 0.377 | 0.491 | 0.262 | 0.353 | 0.231 | 0.256
LK-2 | 0.278 | 0.318 | 0.272 | 0.791 | 1.03 | 0.704 | 0.155 | 0.177 | 0.2 | 0.216 | 0.195 | 0.219 | 0.618 | 0.504 | 0.376 | 0.694 | 0.759 | 0.732
LC-2-ad | 0.307 | 0.293 | 0.269 | 0.48 | 0.553 | 0.429 | 0.416 | 0.445 | 0.472 | 0.588 | 0.404 | 0.381 | 0.871 | 0.878 | 0.804 | 0.729 | 0.705 | 0.55
HCC-44 | 0.624 | 0.552 | 0.613 | 1.05 | 0.956 | 0.942 | 0.558 | 1.05 | 0.812 | 0.839 | 0.831 | 0.733 | 1.09 | 0.914 | 1.04 | 1.02 | 0.916 | 0.952
LU99A | 0.182 | 0.171 | 0.202 | 0.747 | 0.775 | 0.743 | 0.277 | 0.306 | 0.317 | 0.61 | 0.57 | 0.558 | 0.378 | 0.433 | 0.356 | 0.289 | 0.25 | 0.287
HARA | 0.258 | 0.261 | 0.306 | 1.16 | 1.12 | 1.05 | 0.094 | 0.117 | 0.0893 | 1.09 | 1.18 | 0.975 | 0.402 | 0.445 | 0.387 | 0.855 | 0.837 | 0.745
NCI-H838 | 0.225 | 0.27 | 0.244 | 1.19 | 1.15 | 1.16 | 0.248 | 0.301 | 0.229 | 0.847 | 0.839 | 0.841 | 0.907 | 0.952 | 0.953 | 0.753 | 0.783 | 0.71
NCI-H647 | 0.148 | 0.153 | 0.203 | 1.23 | 1.03 | 1.01 | 0.188 | 0.325 | 0.352 | 0.963 | 1.12 | 0.857 | 0.435 | 0.557 | 0.389 | 0.678 | 0.68 | 0.54
